# Results reported in patent US10858422B2, “Methods for treating systemic lupus erythematosus with an anti-apolipoprotein B antibody” (Abcentra, LLC, priority 2016, dated 2020).
# Marks after values point to notes of the source that are not given here.
# B1: Fas ligand: soluble Fas ligand used for death receptor activation of PBMC (protein)
# chain: PSPPPEKKELRKVAHLTGKSNSRSMPLEWEDTYGIVLLSGVKYKKGGLVINETGLYFVYSKVYFRGQSCNNLPLSHKVYMRNSKYPQDLVMMEGKMMSYCTTGQMWARSSYLGAVFNLTSADHLYVNVSELSLVNFEESQTFFGLYKL
# Assays:
# gld.apoE−/− mice = experiment: Relative anti-P210 IgM/IgG antibody levels in serum (ELISA); format: in vivo, mouse; settings: normal diet (ND), ± SEM
# Description: Each animal dosed with a test article received subcutaneous primary immunization in the dorsal interscapular area at Day 0 (7 weeks of age), followed by a booster on Day 21 and 35 (10 and 12 weeks of age). CVX-3-84 was used to dose ApoE^−/− (n=20), gld mice (n=20). CVX-3-123 was used to dose gld.ApoE^−/− (n=30 on high cholesterol chow; n=30 on normal chow diet).
# 20 gld.ApoE^−/− mice in the positive control group received an oral dose of rosiglitazone at 10 mg/kg/day in normal chow starting on Day 0 (7 weeks of age) and continuing for the duration of the study period. Mice receiving Rosiglitazone were sacrificed at Day 126 (25 weeks of age).
# Serum and urine was collected at day 63 of the study (16 weeks of age). Serum collected at day 63 of the study was analyzed for anti-P210 IgM and IgG antibodies. Levels of oxidized phospholipid was also measured in gld.apoE^−/− mice maintained on normal diet.
# Serum and urine was collected at euthanasia. Endpoint serum was analyzed for anti-nuclear antibody (ANA) titers, total cholesterol, triglycerides, anti-P210 IgM antibodies, and anti-P210 IgG antibodies. Endpoint serum from gld.ApoE^−/− animals maintained on normal diet was also analyzed for anti-cardiolipin antibodies. Anti-nuclear antibody titers were tested using the NOVA-lite Hep2 ANA assay, and serum dilutions of 1:100, 1:1000, 1:10000, 1:30000, and 1:90000 were tested for nuclear-localized antibody reactivity to human epithelial cells. Reactivity was detected using FITC-conjugated goat anti-mouse IgG antibody. ANAs were scored based on the presence or absence of antibody signal at each titer. Total cholesterol was assessed using Cholesterol E reagent according to the manufacturer's protocol. Triglyceride levels were assessed with Triglyceride Reagent and with a glycerol standard. Anti-P210 antibodies were detected by ELISA using reconstituted P210 peptide.
# [1] = test system: Spleen T-cells from gld.apoE−/− mice; experiment: Cytokine production from spleen T-cells activated by CD3/CD28; format: in vivo, mouse; settings: Avg; for IFN-γ production / IL-6 production / IL-10 production / IL-12 (p70) production: Normal Diet; for TNFα Production from Spleen T-cells: Western Diet
# Description: Lymph nodes and spleen were harvested and weighed. Splenocytes were isolated and analyzed for T-regulatory cell populations by immunofluorescence staining and flow cytometry. Splenocytes were also cultured and T-cells activated in vitro by Mouse T-Activator CD3/CD28. Production of cytokines INF-γ, IL-6, IL-10, IL-12, and […] by activated T-cells were assessed with immunoassays.
# CVX-12 immunization is hypothesized to impact atherosclerosis via modulation of T-cell cytokine release. Thus cytokine release by cultured splenocytes activated by CD3 and CD28 was assessed for the cytokines IFNγ, IL-6, IL-10, IL-12 (p70), and TNFα (Tables 6-12). CVX-12 immunization increased IL-6 and IL-10 cytokine release from spleen T-cells in apoE^−/− mice. […] IL-10 release from gld.apoE^−/− splenocytes was decreased by CVX-12 immunization of gld.apoE^−/− mice on western diet.
# MRL/lpr ApoE−/− mice = experiment: Flow cytometry of blood, spleen and lymph node cells after oral immunization; format: in vivo, mouse; settings: 30 μg/ml
# human PBMC = experiment: Death receptor activation of human PBMC: release of soluble death receptors, apoptosis; format: cell-based; settings: for release of Fas into culture medium / release of TNF-R1: healthy donor PBMC, Fas ligand 0.5 μg/ml, IL-1β 10 ng/ml, TNF 10 ng/ml, LPS 10 μg/ml
# Excerpt: PBMCs from SLE patients (n=6, x female and x male, age x+/−x years) and matched healthy controls (n=6, x female and x male, age x+/−x years) as well as from a healthy donor were isolated using FicollPaque Plus (GE healthcare, Waukesha, Wis., USA) density gradient centrifugation according to manufacturer's instructions. The cells from SLE patients and controls were resuspended in 40% autologous serum, 40% RPMI 1640 medium (Thermo Fisher Scientific, Waltham, Mass., USA) and 20% dimethyl sulfoxide (Sigma Aldrich, St. Louis, […]., USA) and frozen in liquid nitrogen.
# (§1) Cells from healthy donors were seeded freshly at a density of 0.5×10^6 cells per well in complete RPMI (10 U/ml Penicillin/streptomycin, 1% L-glutamine, 1% sodium pyruvate, 1% Hepes and 0.1% mercaptoethanol) with 2% FBS (HyClone South Logan, Utah, USA). For death receptor activation, IL-1β, soluble Fas ligand, TNF (Peprotech, Rocky Hill, N.J., USA) and LPS (Sigma Aldrich) were used at a concentration of 10 ng/ml, 0.5 μg/ml, 10 ng/ml and 10 μg/ml respectively.
# as §1, with “from a” for “from”, “donor” for “donors”, “TNFα” for “TNF”
# Cell supernatants from death receptor activated PBMCs from a healthy donor and SLE patients/controls were used for measurement of soluble Fas, TNF-R1 and TRAIL-R2 with a magnetic bead system multiplex assay (R&D Systems, Minneapolis, Minn., USA) obtained by Luminex machine (Bio-Rad). For SLE patients and controls, TNF-R1 concentration was measured with ELISA (Abcam) according to manufacturer's recommendations.
molecule,measurement,setting,value
CN(CCOc1ccc(CC2SC(=O)NC2=O)cc1)c1ccccn1 (stereo not shown) [Rosiglitazone],anti-P210 IgG,gld.apoE−/− mice; Endpoint,0.68 ± 0.07 OD at 405 nm
same,anti-P210 IgM,gld.apoE−/− mice; Endpoint,"0.42 ± 0.06 ^a, c OD at 405 nm"
same,anti-P210 IgG,gld.apoE−/− mice; Midpoint,0.68 ± 0.07 OD at 405 nm
same,anti-P210 IgM,gld.apoE−/− mice; Midpoint,0.64 ± 0.03 OD at 405 nm
same,IFN-γ production,[1]; Stimulated,11419.9 pg/mL
same,IL-6 production,[1]; Stimulated,385.0* pg/mL
same,IL-10 production,[1]; Stimulated,1528.3 pg/mL
same,IL-12 (p70) production,[1]; Stimulated,44.7 pg/mL
same,IFN-γ production,[1]; Unstimulated,24.2* pg/mL
same,IL-6 production,[1]; Unstimulated,255.9* pg/mL
same,IL-10 production,[1]; Unstimulated,196.0 pg/mL
same,IL-12 (p70) production,[1]; Unstimulated,89.2 pg/mL
same,TNFα Production from Spleen T-cells,[1]; Stimulated (CD3/CD28),39.5 pg/mL
same,TNFα Production from Spleen T-cells,[1]; Unstimulated,8.9 pg/mL
CTB,central memory T cells in lymph node,MRL/lpr ApoE−/− mice,34.5±10.6%
same,central memory helper T cells (CD3+CD4+CD62L+CD44int-hi) in spleen,MRL/lpr ApoE−/− mice,19.4±5.2%
same,cytolytic T cell populations (CD3+CD8+CD62L+CD44int-hi) in spleen,MRL/lpr ApoE−/− mice,18.2±3.7%
"IL-1β: cytokine stimulus, 10 ng/ml [reference compound]",release of Fas into culture medium,human PBMC,no effect
same,release of TNF-R1,human PBMC,stimulated
TNF-α [reference compound],release of Fas into culture medium,human PBMC,no effect
same,release of TNF-R1,human PBMC,no effect
B1,increase in the release of FAS,human PBMC; PBMCs from SLE patients,73%
same,frequency of apoptotic lymphocytes,human PBMC; PBMCs from healthy controls (not in PBMCs from SLE patients),increased
same,release of Fas into culture medium,human PBMC,stimulated
same,release of TNF-R1,human PBMC,stimulated
